Source: ChEMBL document CHEMBL2010719, “Tyrosine modified analogues of the α4β7 integrin inhibitor biotin-R₈ERY prepared via Click Chemistry: synthesis and biological evaluation” (Bioorg Med Chem, 2012)
pIC50: −log10 of the molar value. Residues, ends and D or L forms follow the SMILES beside them. *: point of attachment. X6 = CC(=O)OC[C@@H]1O[C@H](n2cc(C*)nn2)[C@@H](OC(C)=O)[C@H](OC(C)=O)[C@@H]1OC(C)=O; X3 = CC(=O)N[C@H]1[C@H](OC(C)=O)[C@H](OC(C)=O)[C@H](COC(C)=O)O[C@@H]1n1cc(C*)nn1; X1 = CC(=O)OC[C@@H]1OC(OC(C)=O)[C@@H](n2cc(C*)nn2)[C@H](OC(C)=O)[C@@H]1OC(C)=O; X9 = CC(=O)N[C@@H]1[C@H](OCCCn2cc(C*)nn2)O[C@@H](CO)[C@@H](O)[C@H]1O; X4 = CC(=O)N[C@H]1[C@H](O)[C@H](O)[C@H](CO)O[C@@H]1n1cc(C*)nn1; X5 = O=C(N[C@@H](Cn1cc(C*)nn1)C(=O)O)OCC1c2ccccc2-c2ccccc21; X2 = OC[C@@H]1O[C@H](n2cc(C*)nn2)[C@@H](O)[C@H](O)[C@@H]1O; Biotin = O=C1N[C@H]2[C@H](CS[C@H]2CCCCC(=O)*)N1; X8 = O=P(O)(O)CCn1cc(C*)nn1; X7 = O=C(O)Cn1cc(C*)nn1; Propargyl = C#CC*

Experiments:
Format in all cases: cell-based
[1] = target: T1, Integrin alpha-4/beta-7 (Mus musculus) (UniProt Q00651+P26011); assay: Inhibition of integrin alpha4 beta7 receptor in mouse TK1 cells assessed as inhibition of Mn2+-activated cell adhesion to mouse MAdCAM-1-Fc at 50 uM after 1 hr by methylene blue staining analysis relative to biotin-r9YDRREY
[2] = target: T1, Integrin alpha-4/beta-7 (Mus musculus); assay: Inhibition of integrin alpha4 beta7 receptor in mouse TK1 cells assessed as inhibition of Mn2+-activated cell adhesion to mouse MAdCAM-1-Fc at 100 uM after 1 hr using methylene blue staining relative to biotin-r9YDRREY
Integrin alpha-4/beta-7 = target: T2, Integrin alpha-4/beta-7 (Mus musculus, UniProt P26011+Q00651); assay: Inhibition of integrin alpha4 beta7 receptor in mouse TK1 cells assessed as inhibition of Mn2+-activated cell adhesion to mouse MAdCAM-1-Fc after 1 hr using methylene blue staining
T2 sequence (Q00651 whole entry): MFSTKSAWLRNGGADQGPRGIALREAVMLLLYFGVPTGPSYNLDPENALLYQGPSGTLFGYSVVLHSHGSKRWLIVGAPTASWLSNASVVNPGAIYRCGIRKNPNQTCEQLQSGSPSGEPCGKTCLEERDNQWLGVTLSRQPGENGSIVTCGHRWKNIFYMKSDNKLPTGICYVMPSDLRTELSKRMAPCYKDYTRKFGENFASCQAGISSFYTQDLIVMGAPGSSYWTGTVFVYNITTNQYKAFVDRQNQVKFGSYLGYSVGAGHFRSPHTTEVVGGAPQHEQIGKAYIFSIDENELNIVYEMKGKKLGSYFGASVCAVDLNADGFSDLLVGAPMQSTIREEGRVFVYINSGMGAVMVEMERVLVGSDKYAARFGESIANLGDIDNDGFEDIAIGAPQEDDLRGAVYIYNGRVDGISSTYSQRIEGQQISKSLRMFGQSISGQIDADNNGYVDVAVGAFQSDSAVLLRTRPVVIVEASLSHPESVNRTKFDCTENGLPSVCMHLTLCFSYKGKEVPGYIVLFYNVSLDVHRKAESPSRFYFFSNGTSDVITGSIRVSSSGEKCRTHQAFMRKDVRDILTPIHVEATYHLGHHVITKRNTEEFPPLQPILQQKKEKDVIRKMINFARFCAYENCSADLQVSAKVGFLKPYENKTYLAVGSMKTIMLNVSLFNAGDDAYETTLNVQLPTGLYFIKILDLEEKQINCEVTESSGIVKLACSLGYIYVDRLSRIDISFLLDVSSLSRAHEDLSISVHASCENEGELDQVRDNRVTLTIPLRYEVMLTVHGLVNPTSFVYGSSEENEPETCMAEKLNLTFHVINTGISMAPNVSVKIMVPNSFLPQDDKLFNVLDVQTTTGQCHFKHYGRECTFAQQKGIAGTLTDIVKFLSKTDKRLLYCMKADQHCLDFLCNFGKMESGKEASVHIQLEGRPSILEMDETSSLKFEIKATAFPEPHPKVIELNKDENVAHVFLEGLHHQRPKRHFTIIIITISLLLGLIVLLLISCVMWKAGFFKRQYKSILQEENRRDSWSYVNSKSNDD
T2 sequence (P26011 whole entry): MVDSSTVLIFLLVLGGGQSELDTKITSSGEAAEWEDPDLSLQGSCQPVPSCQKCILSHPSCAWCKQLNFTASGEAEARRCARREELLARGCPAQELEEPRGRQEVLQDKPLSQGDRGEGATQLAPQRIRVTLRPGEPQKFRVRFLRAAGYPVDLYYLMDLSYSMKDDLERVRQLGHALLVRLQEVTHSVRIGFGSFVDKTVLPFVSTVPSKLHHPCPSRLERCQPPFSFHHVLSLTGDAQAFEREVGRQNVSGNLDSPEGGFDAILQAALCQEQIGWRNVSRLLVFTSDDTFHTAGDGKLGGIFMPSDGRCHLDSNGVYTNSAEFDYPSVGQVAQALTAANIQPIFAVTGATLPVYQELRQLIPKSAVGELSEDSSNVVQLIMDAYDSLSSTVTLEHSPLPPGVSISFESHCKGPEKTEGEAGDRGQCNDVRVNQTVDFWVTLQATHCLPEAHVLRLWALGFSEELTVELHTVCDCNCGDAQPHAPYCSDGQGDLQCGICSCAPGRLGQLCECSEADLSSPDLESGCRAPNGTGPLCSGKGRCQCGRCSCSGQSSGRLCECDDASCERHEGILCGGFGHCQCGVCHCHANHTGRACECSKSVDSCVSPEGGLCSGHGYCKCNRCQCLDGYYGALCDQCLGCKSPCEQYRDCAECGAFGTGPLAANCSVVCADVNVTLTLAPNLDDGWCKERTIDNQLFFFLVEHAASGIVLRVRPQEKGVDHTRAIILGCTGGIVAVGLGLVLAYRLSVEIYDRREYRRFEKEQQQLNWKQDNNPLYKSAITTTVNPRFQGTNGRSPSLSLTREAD

| Compound | inhibition [1] | inhibition [2] | pIC50 (Integrin alpha-4/beta-7) |
| --- | --- | --- | --- |
| N=C(N)NCCC[C@H](NC(=O)CCCC[C@@H]1SC[C@@H]2NC(=O)N[C@@H]21)C(=O)N[C@@H](CCCNC(=N)N)C(=O)N[C@@H](CCCNC(=N)N)C(=O)N[C@@H](CCCNC(=N)N)C(=O)N[C@@H](CCCNC(=N)N)C(=O)N[C@@H](CCCNC(=N)N)C(=O)N[C@@H](CCCNC(=N)N)C(=O)N[C@@H](CCCNC(=N)N)C(=O)N[C@@H](CCC(=O)O)C(=O)N[C@@H](CCCNC(=N)N)C(=O)N[C@@H](Cc1ccc(OCc2cn(CC(=O)O)nn2)cc1)C(=O)O (Biotin-RRRRRRRRERY(X7)-OH) | 56.1% | 34.9% | – |
| CC(=O)OC[C@@H]1O[C@H](n2cc(COc3ccc(C[C@H](NC(=O)[C@H](CCCNC(=N)N)NC(=O)[C@H](CCC(=O)O)NC(=O)[C@H](CCCNC(=N)N)NC(=O)[C@H](CCCNC(=N)N)NC(=O)[C@H](CCCNC(=N)N)NC(=O)[C@H](CCCNC(=N)N)NC(=O)[C@H](CCCNC(=N)N)NC(=O)[C@H](CCCNC(=N)N)NC(=O)[C@H](CCCNC(=N)N)NC(=O)[C@H](CCCNC(=N)N)NC(=O)CCCC[C@@H]4SC[C@@H]5NC(=O)N[C@@H]54)C(=O)O)cc3)nn2)[C@@H](OC(C)=O)[C@H](OC(C)=O)[C@@H]1OC(C)=O (Biotin-RRRRRRRRERY(X6)-OH) | 47.4% | 52.5% | – |
| N=C(N)NCCC[C@H](NC(=O)CCCC[C@@H]1SC[C@@H]2NC(=O)N[C@@H]21)C(=O)N[C@@H](CCCNC(=N)N)C(=O)N[C@@H](CCCNC(=N)N)C(=O)N[C@@H](CCCNC(=N)N)C(=O)N[C@@H](CCCNC(=N)N)C(=O)N[C@@H](CCCNC(=N)N)C(=O)N[C@@H](CCCNC(=N)N)C(=O)N[C@@H](CCCNC(=N)N)C(=O)N[C@@H](CCC(=O)O)C(=O)N[C@@H](CCCNC(=N)N)C(=O)N[C@@H](Cc1ccc(OCc2cn(C[C@H](NC(=O)OCC3c4ccccc4-c4ccccc43)C(=O)O)nn2)cc1)C(=O)O (Biotin-RRRRRRRRERY(X5)-OH) | 114% | 111% | > 5.00 |
| C#CCOc1ccc(C[C@H](NC(=O)[C@H](CCCNC(=N)N)NC(=O)[C@H](CCC(=O)O)NC(=O)[C@H](CCCNC(=N)N)NC(=O)[C@H](CCCNC(=N)N)NC(=O)[C@H](CCCNC(=N)N)NC(=O)[C@H](CCCNC(=N)N)NC(=O)[C@H](CCCNC(=N)N)NC(=O)[C@H](CCCNC(=N)N)NC(=O)[C@H](CCCNC(=N)N)NC(=O)[C@H](CCCNC(=N)N)NC(=O)CCCC[C@@H]2SC[C@@H]3NC(=O)N[C@@H]32)C(=O)O)cc1 (Biotin-RRRRRRRRERY(Propargyl)-OH) | 39.8% | 39.8% | – |
| CC(=O)N[C@@H]1[C@H](OCCCn2cc(COc3ccc(C[C@H](NC(=O)[C@H](CCCNC(=N)N)NC(=O)[C@H](CCC(=O)O)NC(=O)[C@H](CCCNC(=N)N)NC(=O)[C@H](CCCNC(=N)N)NC(=O)[C@H](CCCNC(=N)N)NC(=O)[C@H](CCCNC(=N)N)NC(=O)[C@H](CCCNC(=N)N)NC(=O)[C@H](CCCNC(=N)N)NC(=O)[C@H](CCCNC(=N)N)NC(=O)[C@H](CCCNC(=N)N)NC(=O)CCCC[C@@H]4SC[C@@H]5NC(=O)N[C@@H]54)C(=O)O)cc3)nn2)O[C@@H](CO)[C@@H](O)[C@H]1O (Biotin-RRRRRRRRERY(X9)-OH) | 41.5% | 42.4% | – |
| N=C(N)NCCC[C@H](NC(=O)CCCC[C@@H]1SC[C@@H]2NC(=O)N[C@@H]21)C(=O)N[C@@H](CCCNC(=N)N)C(=O)N[C@@H](CCCNC(=N)N)C(=O)N[C@@H](CCCNC(=N)N)C(=O)N[C@@H](CCCNC(=N)N)C(=O)N[C@@H](CCCNC(=N)N)C(=O)N[C@@H](CCCNC(=N)N)C(=O)N[C@@H](CCCNC(=N)N)C(=O)N[C@@H](CCC(=O)O)C(=O)N[C@@H](CCCNC(=N)N)C(=O)N[C@@H](Cc1ccc(OCc2cn(CCP(=O)(O)O)nn2)cc1)C(=O)O (Biotin-RRRRRRRRERY(X8)-OH) | 60.3% | 65.4% | – |
| CC(=O)OC[C@@H]1OC(OC(C)=O)[C@@H](n2cc(COc3ccc(C[C@H](NC(=O)[C@H](CCCNC(=N)N)NC(=O)[C@H](CCC(=O)O)NC(=O)[C@H](CCCNC(=N)N)NC(=O)[C@H](CCCNC(=N)N)NC(=O)[C@H](CCCNC(=N)N)NC(=O)[C@H](CCCNC(=N)N)NC(=O)[C@H](CCCNC(=N)N)NC(=O)[C@H](CCCNC(=N)N)NC(=O)[C@H](CCCNC(=N)N)NC(=O)[C@H](CCCNC(=N)N)NC(=O)CCCC[C@@H]4SC[C@@H]5NC(=O)N[C@@H]54)C(=O)O)cc3)nn2)[C@H](OC(C)=O)[C@@H]1OC(C)=O (some centres not stated) (Biotin-RRRRRRRRERY(X1)-OH) | 104% | 105% | 4.30 |
| N=C(N)NCCC[C@H](NC(=O)CCCC[C@@H]1SC[C@@H]2NC(=O)N[C@@H]21)C(=O)N[C@@H](CCCNC(=N)N)C(=O)N[C@@H](CCCNC(=N)N)C(=O)N[C@@H](CCCNC(=N)N)C(=O)N[C@@H](CCCNC(=N)N)C(=O)N[C@@H](CCCNC(=N)N)C(=O)N[C@@H](CCCNC(=N)N)C(=O)N[C@@H](CCCNC(=N)N)C(=O)N[C@@H](CCC(=O)O)C(=O)N[C@@H](CCCNC(=N)N)C(=O)N[C@@H](Cc1ccc(OCc2cn([C@H]3O[C@@H](CO)[C@@H](O)[C@@H](O)[C@@H]3O)nn2)cc1)C(=O)O (Biotin-RRRRRRRRERY(X2)-OH) | 60.2% | 62.7% | – |
| CC(=O)N[C@H]1[C@H](OC(C)=O)[C@H](OC(C)=O)[C@H](COC(C)=O)O[C@@H]1n1cc(COc2ccc(C[C@H](NC(=O)[C@H](CCCNC(=N)N)NC(=O)[C@H](CCC(=O)O)NC(=O)[C@H](CCCNC(=N)N)NC(=O)[C@H](CCCNC(=N)N)NC(=O)[C@H](CCCNC(=N)N)NC(=O)[C@H](CCCNC(=N)N)NC(=O)[C@H](CCCNC(=N)N)NC(=O)[C@H](CCCNC(=N)N)NC(=O)[C@H](CCCNC(=N)N)NC(=O)[C@H](CCCNC(=N)N)NC(=O)CCCC[C@@H]3SC[C@@H]4NC(=O)N[C@@H]43)C(=O)O)cc2)nn1 (Biotin-RRRRRRRRERY(X3)-OH) | 40% | 46.5% | – |
| CC(=O)N[C@H]1[C@H](O)[C@H](O)[C@H](CO)O[C@@H]1n1cc(COc2ccc(C[C@H](NC(=O)[C@H](CCCNC(=N)N)NC(=O)[C@H](CCC(=O)O)NC(=O)[C@H](CCCNC(=N)N)NC(=O)[C@H](CCCNC(=N)N)NC(=O)[C@H](CCCNC(=N)N)NC(=O)[C@H](CCCNC(=N)N)NC(=O)[C@H](CCCNC(=N)N)NC(=O)[C@H](CCCNC(=N)N)NC(=O)[C@H](CCCNC(=N)N)NC(=O)[C@H](CCCNC(=N)N)NC(=O)CCCC[C@@H]3SC[C@@H]4NC(=O)N[C@@H]43)C(=O)O)cc2)nn1 (Biotin-RRRRRRRRERY(X4)-OH) | 28% | 39.6% | – |
